Reference: patent publication US20240025893A1, “PYRIMIDINE-AND NITROGEN-CONTAINING BICYCLIC COMPOUND” (Asahi Kasei Pharma Corporation, priority 2020, published 2024)

Columns and labels:
human IRAK-4 = human IRAK-4 (Homo sapiens (Human), UniProt Q9NWZ3); test: Measurement of human IRAK-4 inhibitory activity (TR-FRET, peptide substrate phosphorylation, 10 μM ATP); type: biochemical; settings: 1 nM IRAK-4, 10 μM ATP, 23° C., 30 minutes; average values
Outline: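 With 1 nM IRAK-4, 0.5 μM biotinylated peptide and 10 μM ATP, compound incubated 30 min at 23 °C in 50 mM HEPES pH 7.2 with Mg2+/Mn2+. Stopped with EDTA plus europium-cryptate anti-phosphopeptide antibody and streptavidin-XL665, 60 min at 23 °C. Activity taken as the 665/620 nm TR-FRET ratio.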

[1] = test system: LPS-stimulated TNFα production in THP-1 cells; test: LPS-stimulated TNFα production inhibition test using human acute monocytic leukemia cell strain THP-1; type: cell-based; settings: Homo sapiens, THP-1, 4 h, LPS 2.5 ng/mL, average values
Outline: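 THP-1 cells were preincubated with compound for 1 h at 37 °C, then stimulated with LPS (2.5 ng/mL final) for 4 h. Supernatant TNFα was quantified by HTRF (620/665 nm ratio) against a calibration curve. IC50 came from a 4-parameter logistic fit, with no-LPS set as 100% and no-compound as 0% suppression.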

human IRAK-4, sequence (Q9NWZ3 whole entry): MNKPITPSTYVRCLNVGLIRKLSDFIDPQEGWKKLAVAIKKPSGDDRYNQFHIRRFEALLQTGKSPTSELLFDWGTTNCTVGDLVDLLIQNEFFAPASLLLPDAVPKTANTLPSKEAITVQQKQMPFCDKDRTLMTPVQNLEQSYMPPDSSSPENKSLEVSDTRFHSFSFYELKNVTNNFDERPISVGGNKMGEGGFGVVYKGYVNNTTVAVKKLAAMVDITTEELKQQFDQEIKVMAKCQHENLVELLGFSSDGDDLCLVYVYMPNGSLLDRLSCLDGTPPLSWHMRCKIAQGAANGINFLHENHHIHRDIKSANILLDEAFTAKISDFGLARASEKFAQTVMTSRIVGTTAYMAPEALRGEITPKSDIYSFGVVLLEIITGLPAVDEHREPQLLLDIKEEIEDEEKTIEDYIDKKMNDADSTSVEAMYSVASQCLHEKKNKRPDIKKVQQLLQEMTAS

| SMILES | IC50 (human IRAK-4) [nM] | IC50 [1] [nM] |
| --- | --- | --- |
| CC(C)[C@@H]1[C@H](O)CCCN1C1CC(C(=O)Nc2nc3ccc(-c4cnc(CO[C@H]5CCC[C@@H]5O)nc4)cc3s2)C1 (stereo partly drawn) [b-02-85] | 1.88 | 127 |
| O=C(Nc1nc2ccc(-c3cnc(CO[C@H]4CCC[C@@H]4O)nc3)cc2s1)C1CC(N(CCC(F)(F)F)C23CC(C2)C3)C1 (stereo partly drawn) [b-03-02] | 11 | 145 |
| CN(C1CC(C(=O)Nc2nc3ccc(-c4cnc(CO[C@H]5CCC[C@@H]5O)nc4)cc3s2)C1)C1(C(F)F)CC1 (stereo partly drawn) [b-03-05] | 2.93 | 108 |
| CN(C1CC(C(=O)Nc2nc3ccc(-c4cnc(CO[C@H]5CCC[C@@H]5O)nc4)cc3s2)C1)C12CC(C#N)(C1)C2 (stereo partly drawn) [b-03-06] | 2.8 | 116 |
| CN(C1CC(C(=O)Nc2nc3ccc(-c4cnc(CO[C@H]5CCC[C@@H]5O)nc4)cc3s2)C1)[C@@H]1C[C@H]1C(F)(F)F (stereo partly drawn) [b-03-07] | 5.26 | 183 |
| CN(C1CC(C(=O)Nc2nc3ccc(-c4cnc(CO[C@H]5CCC[C@@H]5O)nc4)cc3s2)C1)C1CC(F)(F)C1 (stereo partly drawn) [b-03-08] | 2.68 | 127 |
| CN(c1cnn(C)c1)C1CC(C(=O)Nc2nc3ccc(-c4cnc(CO[C@H]5CCC[C@@H]5O)nc4)cc3s2)C1 (stereo partly drawn) [b-03-09] | 2.21 | 143 |
| C[C@H]1CN(C(=O)OC(C)(C)C)CCN1[C@H]1C[C@@H](C(=O)Nc2nc3ccc(-c4cnc(CO[C@H]5CCC[C@@H]5O)nc4)cc3s2)C1 [b-04-01, tert-Butyl (S)-4-((1S,3R)-3-((6-(2-((((1S,2S)-2-hydroxycyclopentyl)oxy)methyl)pyrimidin-5-yl)benzo[d]thiazol-2-yl)carbamoyl)cyclobutyl)-3-methylpiperazine-1-carboxylate] | 5.49 | 51 |
| C[C@H]1CN(C(=O)C23CC(C#N)(C2)C3)CCN1[C@H]1C[C@@H](C(=O)Nc2nc3ccc(-c4cnc(CO[C@H]5CCC[C@@H]5O)nc4)cc3s2)C1 [b-04-03] | 3.21 | 46 |
| C[C@H]1CN(C(=O)CC2CCOCC2)CCN1[C@H]1C[C@@H](C(=O)Nc2nc3ccc(-c4cnc(CO[C@H]5CCC[C@@H]5O)nc4)cc3s2)C1 [b-04-04] | 2.69 | 49 |
| C[C@H]1CN(C(=O)C2CCCO2)CCN1[C@H]1C[C@@H](C(=O)Nc2nc3ccc(-c4cnc(CO[C@H]5CCC[C@@H]5O)nc4)cc3s2)C1 (stereo partly drawn) [b-04-05] | 2.85 | 54 |
| COCCOCC(=O)N1CCN([C@H]2C[C@@H](C(=O)Nc3nc4ccc(-c5cnc(CO[C@H]6CCC[C@@H]6O)nc5)cc4s3)C2)[C@@H](C)C1 [b-04-06] | 2.37 | 64 |
| C[C@H]1CN(C(=O)C2CCOC2)CCN1[C@H]1C[C@@H](C(=O)Nc2nc3ccc(-c4cnc(CO[C@H]5CCC[C@@H]5O)nc4)cc3s2)C1 (stereo partly drawn) [b-04-07] | 2.6 | 60 |
| CCOCC(=O)N1CCN([C@H]2C[C@@H](C(=O)Nc3nc4ccc(-c5cnc(CO[C@H]6CCC[C@@H]6O)nc5)cc4s3)C2)[C@@H](C)C1 [b-04-08] | 2.48 | 53 |
| C[C@H]1CN(C(=O)C2CCOCC2)CCN1[C@H]1C[C@@H](C(=O)Nc2nc3ccc(-c4cnc(CO[C@H]5CCC[C@@H]5O)nc4)cc3s2)C1 [b-04-09] | 2.58 | 55 |
| C[C@H]1CN(C(=O)C23CC(C2)C3)CCN1[C@H]1C[C@@H](C(=O)Nc2nc3ccc(-c4cnc(CO[C@H]5CCC[C@@H]5O)nc4)cc3s2)C1 [b-04-10] | 3.94 | 30 |
| C[C@H]1CN(C(=O)c2ccccn2)CCN1[C@H]1C[C@@H](C(=O)Nc2nc3ccc(-c4cnc(CO[C@H]5CCC[C@@H]5O)nc4)cc3s2)C1 [b-04-11] | 1.89 | 38 |
| C[C@H]1CN(C(=O)c2cccnc2)CCN1[C@H]1C[C@@H](C(=O)Nc2nc3ccc(-c4cnc(CO[C@H]5CCC[C@@H]5O)nc4)cc3s2)C1 [b-04-12] | 1.93 | 39 |

Compounds with a lower IC50 (human IRAK-4), results first:

| IC50 (human IRAK-4) [nM] | IC50 [1] [nM] | SMILES |
| --- | --- | --- |
| 1.7 | 27 | C[C@H]1CN(C(=O)c2ccncc2)CCN1[C@H]1C[C@@H](C(=O)Nc2nc3ccc(-c4cnc(CO[C@H]5CCC[C@@H]5O)nc4)cc3s2)C1 [b-04-13] |
| 1.67 | 117 | CN(C1CC(C(=O)Nc2nc3ccc(-c4cnc(CO[C@H]5CCC[C@@H]5O)nc4)cc3s2)C1)C12CC(C)(C1)C2 (stereo partly drawn) [b-03-04] |
| 1.61 | 28 | CC(C)[C@H]1CN(C(=O)c2ccccn2)CCN1C1CC(C(=O)Nc2nc3ccc(-c4cnc(CO[C@H]5CCC[C@@H]5O)nc4)cc3s2)C1 (stereo partly drawn) [b-04-15] |
| 1.6 | 108 | Cc1noc(C)c1C(=O)N1CCN([C@H]2C[C@@H](C(=O)Nc3nc4ccc(-c5cnc(CO[C@H]6CCC[C@@H]6O)nc5)cc4s3)C2)[C@@H](C)C1 [b-04-27] |
| 1.58 | 22 | CC(C)[C@H]1CN(C(=O)C2CCOC2)CCN1C1CC(C(=O)Nc2nc3ccc(-c4cnc(CO[C@H]5CCC[C@@H]5O)nc4)cc3s2)C1 (stereo partly drawn) [b-04-17] |
| 1.51 | 23 | CC[C@H]1CN(C(=O)c2ccccn2)CCN1C1CC(C(=O)Nc2nc3ccc(-c4cnc(CO[C@H]5CCC[C@@H]5O)nc4)cc3s2)C1 (stereo partly drawn) [b-04-16] |
| 1.5 | 25 | C[C@H]1CN(C(=O)c2ccc(C(F)(F)F)cn2)CCN1[C@H]1C[C@@H](C(=O)Nc2nc3ccc(-c4cnc(CO[C@H]5CCC[C@@H]5O)nc4)cc3s2)C1 [b-04-14] |
| 1.43 | 126 | CN(C1CC1)C1CC(C(=O)Nc2nc3ccc(-c4cnc(CO[C@H]5CCC[C@@H]5O)nc4)cc3s2)C1 (stereo partly drawn) [b-03-03] |
| 1.41 | 54 | C[C@H]1CN(C(=O)[C@H]2CCOC2)CCN1[C@H]1C[C@@H](C(=O)Nc2nc3ccc(-c4cnc(CO[C@H]5CCC[C@@H]5O)nc4)cc3s2)C1 [b-04-23] |
| 1.4 | 21 | Cc1cc(C(=O)N2CCN([C@H]3C[C@@H](C(=O)Nc4nc5ccc(-c6cnc(CO[C@H]7CCC[C@@H]7O)nc6)cc5s4)C3)[C@@H](C)C2)ccn1 [b-04-02, (1R,3s)-N-(6-(2-((((1S,2S)-2-Hydroxycyclopentyl)oxy)methyl)pyrimidin-5-yl)benzo[d]thiazol-2-yl)-3-((S)-2-methyl-4-(2-methylisonicotinoyl)piperazin-1-yl)cyclobutane-1-carboxamide] |
| 1.38 | 39 | C[C@H]1CN(C(=O)c2cccc(C(F)(F)F)n2)CCN1[C@H]1C[C@@H](C(=O)Nc2nc3ccc(-c4cnc(CO[C@H]5CCC[C@@H]5O)nc4)cc3s2)C1 [b-04-19] |
| 1.3 | 71 | CN(C1CC(C(=O)Nc2nc3ccc(-c4cnc(CO[C@H]5CCC[C@@H]5O)nc4)cc3s2)C1)C12CC(C1)C2 (stereo partly drawn) [b-03-01, 3-(Bicyclo[1,1,1]pentan-1-yl(methyl)amino)-N-(6-(2-((((1S,2S)-2-hydroxycyclopentyl)oxy)methyl)pyrimidin-5-yl)benzo[d]thiazol-2-yl)cyclobutane-1-carboxamide] |
| 1.3 | 50 | C[C@H]1CN(C(=O)[C@@H]2CCOC2)CCN1[C@H]1C[C@@H](C(=O)Nc2nc3ccc(-c4cnc(CO[C@H]5CCC[C@@H]5O)nc4)cc3s2)C1 [b-04-22] |
| 1.22 | 86 | CCCOCc1ncc(-c2ccc3nc(NC(=O)[C@H]4C[C@@H](N5CCN(C(=O)c6ccc(C(F)(F)F)cn6)C[C@@H]5C)C4)sc3c2)cn1 [b-04-26] |
| 1.15 | 33 | Cc1cccc(C(=O)N2CCN([C@H]3C[C@@H](C(=O)Nc4nc5ccc(-c6cnc(CO[C@H]7CCC[C@@H]7O)nc6)cc5s4)C3)[C@@H](C)C2)n1 [b-04-21] |
| 1.12 | 39 | COc1cccc(C(=O)N2CCN([C@H]3C[C@@H](C(=O)Nc4nc5ccc(-c6cnc(CO[C@H]7CCC[C@@H]7O)nc6)cc5s4)C3)[C@@H](C)C2)n1 [b-04-20] |
| 1.11 | 30 | CC[C@H]1CN(C(=O)C2CCOC2)CCN1C1CC(C(=O)Nc2nc3ccc(-c4cnc(CO[C@H]5CCC[C@@H]5O)nc4)cc3s2)C1 (stereo partly drawn) [b-04-18] |
| 0.95 | 182 | O=C(Nc1nc2ccc(-c3cnc(CO[C@H]4CCC[C@@H]4O)nc3)cc2s1)C1CC(NCc2ccsn2)C1 (stereo partly drawn) [b-02-87] |
| 0.88 | 71 | CCCOCc1ncc(-c2ccc3nc(NC(=O)[C@H]4C[C@@H](N5CCN(C(=O)C6CCOC6)C[C@@H]5C)C4)sc3c2)cn1 (stereo partly drawn) [b-04-25] |
| 0.803 | 132 | O=C(Nc1nc2ccc(-c3cnc(CO[C@H]4CCC[C@@H]4O)nc3)cc2s1)C1CC(NCc2nccs2)C1 (stereo partly drawn) [b-02-86] |
| 0.76 | 95 | CCCOCc1ncc(-c2ccc3nc(NC(=O)[C@H]4C[C@@H](N5CCN(C(=O)c6ccccn6)C[C@@H]5C)C4)sc3c2)cn1 [b-04-24] |
